Patent US10493087B2, “Sialylation-increasing therapies for diseases associated with oxidative stress” (THE UNITED STATES OF AMERICA, AS REPRESENTED BY THE …, priority 2015, dated 2019)

Tests used:
[1] = tested on: Gne−/−hGNED176V-Tg mice; assay: Motor performance analysis (treadmill performance and endurance tests); format: in vivo; conditions: vs untreated
Procedure: N-Acetylcysteine (NAC) Treatment Protocols: […] were randomly divided into high dose NAC (n=13), low dose NAC (n=13), or untreated control (n=17) groups. […] There was no difference in water consumption between mice receiving NAC supplemented water or regular drinking water. […] Three littermates groups (high dose NAC; n=7, low dose NAC; n=7, or untreated control; n=6) were treated in the same way. Motor performance analysis: The motor performance was evaluated using treadmill exercise as previously reported (9, 10) with minor modification. Briefly, after 7 days of acclimation on the treadmill, two exercise tests were performed on separate days. […] The time of exhaustion was used to calculate the total distance of the mice ran during the exercise. The endurance exercise consisted of a 60-min treadmill run at 20 m/min with a […] incline, during which the number of beam breaks or rests were recorded. Both tests were done twice with 2 days rest in between.

[2] = tested on: Gne−/−hGNED176V-Tg mice; assay: Fiber diameter analysis of gastrocnemius muscles; format: in vivo; conditions: for Mean fiber diameter: gastrocnemius
Procedure: N-Acetylcysteine (NAC) Treatment Protocols: […] were randomly divided into high dose NAC (n=13), low dose NAC (n=13), or untreated control (n=17) groups. […] There was no difference in water consumption between mice receiving NAC supplemented water or regular drinking water. […] Three littermates groups (high dose NAC; n=7, low dose NAC; n=7, or untreated control; n=6) were treated in the same way. Fiber diameter analysis: Muscle tissues were processed according to previous protocols (8-10). For the morphometric analysis, we stained frozen transverse sections (6 μm) of gastrocnemius muscles with rabbit polyclonal antibody to caveolin 3 (BD Transduction Laboratories), followed by Alexa fluor-conjugated goat IgG antibody to rabbit (Invitrogen). Five randomly selected images per mouse were used to measure fiber diameters using ImageJ software (NIH). Minimal inner diameters of 1,000 myofibers from each mouse were measured.

[3] = tested on: GNE Myopathy muscle; assay: Gene expression analysis of muscle (quantitative RT-PCR and microarray); format: in vivo, mice
Procedure: Quantitative RT-PCR and microarray analysis: […] Microarray experiments were carried out using a […] Mouse Whole Genome Bioarray (Applied Microarrays Inc.) at Filgen Inc. The arrays were scanned using a […] Array Scanner (Molecular Devices Inc.). The data were analyzed by using Microarray Data Analysis Tool version 3.2 (Filgen Inc.). For quantitative PCR, TAQMAN® probes were used in combination with the TAQMAN® Gene Expression Master Mix (Applied Biosystems) in a total reaction of 20 μl. STEPONEPLUSTM Real-Time PCR System (Applied Biosystems) was used to quantify mRNA expression. mRNA relative expression was normalized to internal control (GAPDH) and determined as fold change in the average expression value of littermate muscles. The TAQMAN® probes used were as follows: F-box protein 32 (Fbxo32), Mm00499523_m1; tripartite motif-containing 63 (Trim63), Mm01185221_m1; Sulfiredoxin1 homolog (Srxn1), Mm00769566_m1; metallothionein 1 (Mt1), Mm00496660_g1; metallothionein 2 (Mt2), Mm00809556_s1; metallothionein 3 (Mt3), Mm00496661_g1; LC3b, Mm00782868_sH. N-Acetylcysteine (NAC) Treatment Protocols: […] were randomly divided into high dose NAC (n=13), low dose NAC (n=13), or untreated control (n=17) groups. […] There was no difference in water consumption between mice receiving NAC supplemented water or regular drinking water. […] Three littermates groups (high dose NAC; n=7, low dose NAC; n=7, or untreated control; n=6) were treated in the same way.

[4] = HD and LD treated GNE Myopathy muscles

Compound: CC(=O)N[C@@H](CS)C(=O)O [NAC, N-acetylcysteine]
- Treadmill performance and endurance tests ([1]; high dose (HD) 1.5 g/kg per day in drinking water): significantly improved
- Motor function (treadmill) ([1]; low dose (LD) 0.15 g/kg per day in drinking water): better motor function
- Mean fiber diameter ([2]; HD group 1.5 g/kg per day, p<0.05 vs untreated 31.7±0.8): 35.2±1.2 μm
- Mean fiber diameter ([2]; LD group 0.15 g/kg per day, p<0.01 vs untreated 31.7±0.8): 35.7±0.8 μm
- Average fiber diameters in healthy control mice ([2]; some healthy control (littermate) mice with NAC supplement): increased
- Upregulation of atrogenes (atrogin-1 and MuRF1) [3, 4]: recovered
- Upregulation of oxidative stress responsive genes (MT1 and MT2) [3, 4]: recovered
- LC3b expression (marker of autophagy) ([3]; treated GNE Myopathy muscles, RT-PCR and microarray): recovered as well
